Data published in PubChem BioAssay AID504572 (Johns Hopkins Ion Channel Center, 2011).

Target: Short transient receptor potential channel 6 (Mus musculus) (UniProt Q61143)
Assay: potency of TRPC6 cation channel blockers – HEK293 cells, membrane potential dye, IC50, SAR follow-up (AID 504572)
Conditions: acetylcholine-evoked membrane potential dye, FDSS

Chain of Short transient receptor potential channel 6 (Mus musculus) (Q61143 whole entry, looked up): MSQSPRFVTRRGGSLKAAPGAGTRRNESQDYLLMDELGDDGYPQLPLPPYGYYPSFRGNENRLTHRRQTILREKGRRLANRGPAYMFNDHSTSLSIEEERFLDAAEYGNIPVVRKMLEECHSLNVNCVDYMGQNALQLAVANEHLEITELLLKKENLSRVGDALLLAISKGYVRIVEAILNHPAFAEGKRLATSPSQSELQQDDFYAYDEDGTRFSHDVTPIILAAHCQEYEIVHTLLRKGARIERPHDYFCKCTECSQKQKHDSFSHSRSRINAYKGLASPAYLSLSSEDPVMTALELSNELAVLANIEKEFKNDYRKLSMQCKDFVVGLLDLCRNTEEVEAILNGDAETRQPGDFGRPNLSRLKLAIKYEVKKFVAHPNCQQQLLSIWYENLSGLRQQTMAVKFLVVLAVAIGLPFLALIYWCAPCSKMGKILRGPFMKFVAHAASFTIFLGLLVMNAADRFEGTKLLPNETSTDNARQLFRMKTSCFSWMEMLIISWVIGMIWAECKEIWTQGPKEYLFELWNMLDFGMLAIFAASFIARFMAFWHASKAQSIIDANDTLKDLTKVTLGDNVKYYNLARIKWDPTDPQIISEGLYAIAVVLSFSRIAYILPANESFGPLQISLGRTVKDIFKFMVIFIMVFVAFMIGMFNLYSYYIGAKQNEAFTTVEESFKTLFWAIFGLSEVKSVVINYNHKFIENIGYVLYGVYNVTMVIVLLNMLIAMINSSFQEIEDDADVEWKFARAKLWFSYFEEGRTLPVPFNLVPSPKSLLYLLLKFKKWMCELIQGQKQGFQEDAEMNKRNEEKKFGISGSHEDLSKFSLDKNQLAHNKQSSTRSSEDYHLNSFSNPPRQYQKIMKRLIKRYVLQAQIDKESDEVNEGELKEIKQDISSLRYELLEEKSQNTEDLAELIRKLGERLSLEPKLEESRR

## CC(C)(C)n1cnc2cc(NCc3ccccc3Cl)ccc21
  IC50: 4.76 µM

## CC(C)(C)n1cnc2cc(NCc3ccc(Cl)cc3Cl)ccc21
  IC50: 6.42 µM

## CCOc1ccc(CNc2ccc3c(c2)ncn3C(C)(C)C)cc1
  IC50: 2.51 µM

## CCOc1ccccc1CNc1ccc2c(c1)ncn2C(C)(C)C
  IC50: 2.16 µM

## COc1ccc(OC)c(CNc2ccc3c(c2)ncn3C(C)(C)C)c1
  IC50: 2.7 µM

## COc1ccccc1CNc1ccc2c(c1)ncn2C(C)(C)C
  IC50: 5.54 µM
